# Columns and labels:
# [1] = Solubility of Compound 1 in solvents; assay type: physicochemical
# From the text: Tables 2 and 3 provide the solubility of the exemplary ALK-5 kinase inhibitor Compound 1 in various solvents.
# [2] = Solubility assessment in solvent and excipient systems (formulated systems); assay type: physicochemical; conditions: 25° C.
# From the text: Table 5 provides the solubility of Compound 1 in various solvents and excipient systems to analyze the topical systems to be utilized with the formulations.
# [3] = Excipient compatibility / stability study (HPLC, 2 weeks); assay type: physicochemical; conditions: for Loss of Compound 1 on storage / Stability conclusion: 2 weeks; for Stability conclusion: RT, 40 and 50° C.
# Experimental: Stability studies were conducted to evaluate compatibility and stability of Compound 1 with some of the excipients included in the solubility experiments. The stability was assessed using the validated API HPLC method after storage at room temperature (RT), 40° C. and 50° C. for 2 weeks. The summary of the data generated from these experiments is provided below in Table 6 below.
# [4] = Stability studies (storage and forced degradation); assay type: physicochemical
# Experimental: The physical solubility of the formulation is an important factor in the development of the formulation.
# The active ingredient, Compound 1, is very stable, and has known stability of greater than 5 years.
# The stability studies were also conducted by storing the samples under the conditions of accelerated degradation (40° C./75% RH). The stress conditions and the resulting stability of the formulation is provided below.
# [5] = system: surgical incision-induced dermal fibrosis; experiment: Surgical incision-induced dermal fibrosis model: clinical signs, visual assessment, histology; assay type: in vivo, Göttingen minipig
# Experimental: . Therefore, a model of surgical incision-induced dermal fibrosis was established in minipigs and the effects of topical Compound 1 were evaluated by visual assessment, histologic examination and gene expression by RNA sequencing.
# The study was conducted in 4 female Göttingen SPF minipigs. On Day 1, eight full thickness incisional wounds, four on each side, were performed on each animal. […]. All animals received a dose volume of 160 μl per wound ([…] applied to a 32 cm2 area surrounding each incision). Clinical signs, visual observations of incisions, body weight and food consumption were recorded during the in-life period. At necropsy (Day 21) two biopsies were collected from each incision for histopathology and gene expression analysis.
# For histopathology, a 0.8 cm punch biopsy was collected from the incisional wounds. The biopsies were divided into two, diagonal to the incisional wound. All biopsies were individually fixed in phosphate buffered neutral 4% formaldehyde. Following fixation, all incisional wound biopsies collected for microscopic examination were trimmed and processed. The specimens were embedded in paraffin and cut at a nominal thickness of approximately […], stained with haematoxylin and eosin, and examined by light microscopy.
smiles,measurement,setting,value
Cc1cccc(-n2ncc(C)c2-c2cc3cnccc3s2)n1 [Compound 1],solubility,"[1]; Cycolmethicone NF, oil or lipid",190 µg/mL
same,solubility,"[1]; DMSO, organic solvent or mixture",83700 µg/mL
same,solubility,"[1]; Dimethicone 100 CST, oil or lipid",110 µg/mL
same,solubility,"[1]; PEG 400, organic solvent or mixture",43900 µg/mL
same,solubility,"[1]; PPG-15 stearyl ether, oil or lipid",4870 µg/mL
same,solubility,"[1]; Transcutol (DEGEE), organic solvent or mixture",115000 µg/mL
same,solubility,"[1]; acetone, organic solvent or mixture",38300 µg/mL
same,solubility,"[1]; benzyl alcohol, organic solvent or mixture",> 300000 µg/mL
same,solubility,"[1]; diethyl sebacate, oil or lipid",13100 µg/mL
same,solubility,"[1]; diisopropyl adipate, oil or lipid",50500 µg/mL
same,solubility,"[1]; ethanol, organic solvent or mixture",30800 µg/mL
same,solubility,"[1]; hexylene glycol, organic solvent or mixture",50200 µg/mL
same,solubility,"[1]; isopropyl myristate, oil or lipid",3450 µg/mL
same,solubility,"[1]; medium chain triglycerides, oil or lipid",5310 µg/mL
same,solubility,"[1]; mineral oil, oil or lipid",540 µg/mL
same,solubility,"[1]; octyldodecanol, oil or lipid",5370 µg/mL
same,solubility,"[1]; organic solvent or mixture, Propylene Glycol (PG)",23700 µg/mL
same,solubility,"[1]; phenethyl alcohol, organic solvent or mixture",> 300000 µg/mL
same,solubility,"[1]; phosphate buffer, pH 6.5, aqueous buffer",20 µg/mL
same,solubility,"[1]; propylene carbonate, organic solvent or mixture",24100 µg/mL
same,solubility,"[1]; sodium citrate buffer, pH 3, aqueous buffer, Sod.Citrate buffer (pH3)",2190 µg/mL
same,solubility,"[1]; sodium citrate buffer, pH 4, aqueous buffer, Sod.Citrate buffer (pH4)",290 µg/mL
same,solubility,"[1]; sodium citrate buffer, pH 5, aqueous buffer, Sod.Citrate buffer (pH5)",70 µg/mL
same,solubility,[1]; water,20 µg/mL
same,Max solubility of Compound 1,"[2]; Aqueous Gels, aqueous component 10-30% w/w",1-2.7%/w
same,Max solubility of Compound 1,"[2]; Creams & Lotions, aqueous component 30-40% w/w",1-1.5%/w
same,Max solubility of Compound 1,"[2]; Non-Aqueous Gels & Film forming solutions, aqueous component 0.0% w/w",3-3.5%/w
same,Loss of Compound 1 on storage,"[3]; Benzyl Alcohol +0.1% BHT, 40° C.",No Loss
same,Loss of Compound 1 on storage,"[3]; Benzyl Alcohol +0.1% BHT, 50° C.",No Loss
same,Loss of Compound 1 on storage,"[3]; Benzyl Alcohol +0.1% BHT, RT storage",No Loss
same,Stability conclusion,[3]; Benzyl Alcohol +0.1% BHT,STABLE AT ALL
same,Loss of Compound 1 on storage,"[3]; Benzyl Alcohol, 40° C.",No Loss
same,Loss of Compound 1 on storage,"[3]; Benzyl Alcohol, 50° C.",No Loss
same,Loss of Compound 1 on storage,"[3]; Benzyl Alcohol, RT storage",No Loss
same,Stability conclusion,[3]; Benzyl Alcohol,STABLE AT ALL
same,Loss of Compound 1 on storage,"[3]; Diethyl Sebacate, 40° C.",3-4% loss
same,Loss of Compound 1 on storage,"[3]; Diethyl Sebacate, 50° C.",6% loss
same,Loss of Compound 1 on storage,"[3]; Diethyl Sebacate, RT storage",No Loss
same,Stability conclusion,[3]; Diethyl Sebacate,Some Instability
same,Loss of Compound 1 on storage,"[3]; PEG 400 + 0.1% BHT, 40° C.",No Loss
same,Loss of Compound 1 on storage,"[3]; PEG 400 + 0.1% BHT, 50° C.",No Loss
same,Loss of Compound 1 on storage,"[3]; PEG 400 + 0.1% BHT, RT storage",No Loss
same,Loss of Compound 1 on storage,"[3]; PEG 400, 40° C.",10% loss
same,Loss of Compound 1 on storage,"[3]; PEG 400, 50° C.",~28% loss
same,Loss of Compound 1 on storage,"[3]; PEG 400, RT storage",No Loss
same,Stability conclusion,[3]; PEG 400,Unstable at > RT
same,Loss of Compound 1 on storage,"[3]; Phenoxyethanol +0.1% BHT, 40° C.",No Loss
same,Loss of Compound 1 on storage,"[3]; Phenoxyethanol +0.1% BHT, 50° C.",No Loss
same,Loss of Compound 1 on storage,"[3]; Phenoxyethanol +0.1% BHT, RT storage",No Loss
same,Stability conclusion,[3]; Phenoxyethanol +0.1% BHT,STABLE AT ALL
same,Loss of Compound 1 on storage,"[3]; Phenoxyethanol, 40° C.",No Loss
same,Loss of Compound 1 on storage,"[3]; Phenoxyethanol, 50° C.",No Loss
same,Loss of Compound 1 on storage,"[3]; Phenoxyethanol, RT storage",No Loss
same,Stability conclusion,[3]; Phenoxyethanol,STABLE AT ALL
same,Loss of Compound 1 on storage,"[3]; Propylene Glycol, 40° C.",No Loss
same,Loss of Compound 1 on storage,"[3]; Propylene Glycol, 50° C.",No Loss
same,Loss of Compound 1 on storage,"[3]; Propylene Glycol, RT storage",No Loss
same,Stability conclusion,[3]; Propylene Glycol,STABLE AT ALL
same,Loss of Compound 1 on storage,"[3]; Transcutol (DEGEE) +0.1% BHT, 40° C.",No Loss
same,Loss of Compound 1 on storage,"[3]; Transcutol (DEGEE) +0.1% BHT, 50° C.",No Loss
same,Loss of Compound 1 on storage,"[3]; Transcutol (DEGEE) +0.1% BHT, RT storage",No Loss
same,Stability conclusion,[3]; Transcutol (DEGEE) +0.1% BHT,STABLE AT ALL
same,Loss of Compound 1 on storage,"[3]; Transcutol (DEGEE), 40° C.",No Loss
same,Loss of Compound 1 on storage,"[3]; Transcutol (DEGEE), 50° C.",No Loss
same,Loss of Compound 1 on storage,"[3]; Transcutol (DEGEE), RT storage",No Loss
same,Stability conclusion,[3]; Transcutol (DEGEE),STABLE AT ALL
same,Loss of Compound 1 on storage,"[3]; pH 3 Citrate buffer, 40° C.",No Loss
same,Loss of Compound 1 on storage,"[3]; pH 3 Citrate buffer, 50° C.",No Loss
same,Loss of Compound 1 on storage,"[3]; pH 3 Citrate buffer, RT storage",No Loss
same,Stability conclusion,[3]; pH 3 Citrate buffer,STABLE AT ALL
same,Loss of Compound 1 on storage,"[3]; pH4 Citrate buffer, 40° C.",No Loss
same,Loss of Compound 1 on storage,"[3]; pH4 Citrate buffer, 50° C.",No Loss
same,Loss of Compound 1 on storage,"[3]; pH4 Citrate buffer, RT storage",No Loss
same,Stability conclusion,[3]; pH4 Citrate buffer,STABLE AT ALL
same,Loss of Compound 1 on storage,"[3]; pH5 Citrate buffer, 40° C.",No Loss
same,Loss of Compound 1 on storage,"[3]; pH5 Citrate buffer, 50° C.",No Loss
same,Loss of Compound 1 on storage,"[3]; pH5 Citrate buffer, RT storage",No Loss
same,Stability conclusion,[3]; pH5 Citrate buffer,STABLE AT ALL
same,Stability of Compound 1 with excipients (summary),[3]; solubility and compatibility experiments,relatively stable except with PEG400 and Diethyl Sebacate
same,Known stability of the active ingredient,[4],greater than 5 years
same,"Wound healing (histology: new collagen, re-epithelialisation)",[5]; Day 21,wound healing was not compromised
same,Adverse clinical signs,"[5]; in-life period, topical 0.1%, 0.3% or 1% twice daily for 14 days",No adverse clinical signs
same,Fibrosis (gene expression and histology data),[5]; topical administration,inhibits fibrosis

# — US20250134875A1, “FORMULATIONS OF ALK-5 KINASE INHIBITORS AND USES THEREOF” (Thirona Bio, Inc., priority 2023, published 2025)
